These are literature values, as cited in US20240197726A1, “NOVEL TETRAHYDROISOQUINOLINE ALKALOID COMPOUND CONTAINING MACROCYCLE” (THE UNIVERSITY OF TOKYO, priority 2021, published 2024).

Like-named read-outs stand apart in the source and are kept apart here.

Data set [1] has as its system MCF-7 breast cancer cells. The settings on record: MCF-7, reference values from literature (Leal et al. Br. J Pharmacol, 2010), read-out: GI50 value: 50% growth inhibitory concentration, cited from earlier work.
Data set [2] has as its system MDA-MB-231 breast cancer cells. As to conditions: MDA-MB-231; reference values from literature (Leal et al. Br. J Pharmacol, 2010); read-out: GI50 value: 50% growth inhibitory concentration; cited from earlier work.
Data set [3] relates to HT-29 colorectal cancer cells. As to conditions: HT-29; reference values from literature (Leal et al. Br. J Pharmacol, 2010); read-out: GI50 value: 50% growth inhibitory concentration; cited from earlier work.
Data set [4] relates to HCT-116 colorectal cancer cells. As to conditions: HCT-116; reference values from literature (Leal et al. Br. J Pharmacol, 2010); read-out: GI50 value: 50% growth inhibitory concentration; cited from earlier work.
For data set [5], the system named is NCI-H23 lung cancer cells. The settings on record: NCI-H23; reference values from literature (Leal et al. Br. J Pharmacol, 2010); read-out: GI50 value: 50% growth inhibitory concentration; cited from earlier work.
For data set [6], the system named is NCI-H460 lung cancer cells. As to conditions: NCI-H460; reference values from literature (Leal et al. Br. J Pharmacol, 2010); read-out: GI50 value: 50% growth inhibitory concentration; cited from earlier work.
The subject of the next data set is A549 lung cancer cells. The settings on record: A549; reference values from literature (Leal et al. Br. J Pharmacol, 2010); read-out: GI50 value: 50% growth inhibitory concentration; cited from earlier work.

For the compound `COc1cc2c(cc1O)CCN[C@]21CS[C@@H]2c3c(OC(C)=O)c(C)c4c(c3[C@H](COC1=O)N1[C@@H]2[C@H]2c3c(cc(C)c(OC)c3O)C[C@@H]([C@@H]1O)N2C)OCO4` [Ecteinascidin 743, reference compound], the GI50 is 2.6 nM in data set [1]; 3.9 nM in data set [2]; 9.8 nM in data set [3]; 4.9 nM in data set [4]; 2.1 nM in data set [5]; 1.8 nM in data set [6]. For the same compound, the GI50 with A549 lung cancer cells was 10.4 nM.
Consider `COc1ccc2[nH]c3c(c2c1)CCN[C@]31CS[C@@H]2c3c(OC(C)=O)c(C)c4c(c3[C@H](COC1=O)N1[C@@H]2[C@H]2c3c(cc(C)c(OC)c3O)C[C@@H]([C@@H]1O)N2C)OCO4` [lurbinectedin, reference compound], for which the GI50 in data set [1] was 1.7 nM; in data set [2], 3.4 nM; in data set [3], 2.4 nM; in data set [4], 6.4 nM; in data set [5], 5.3 nM; in data set [6], 1.5 nM. For the same compound, the GI50 in the data set on A549 lung cancer cells was 1.3 nM.
Regarding `COc1cc2c(cc1O)CCNC21CS[C@@H]2c3c(OC(C)=O)c(C)c4c(c3C(COC1=O)N1[C@@H]2[C@H]2c3c(cc(C)c(OC)c3O)C[C@@H]([C@@H]1O)N2C)OCO4` (stereo partly shown) [Ecteinascidin 743, reference compound], the GI50 is 2.6 nM in data set [1] (listed as drawing 118); 2.8 nM in data set [1] (listed as drawing 142); 3.9 nM in data set [2]; 9.8 nM in data set [3]; 4.9 nM in data set [4]; 2.1 nM in data set [5]. In addition, the GI50 in data set [6] is 1.8 nM; in the data set with A549 lung cancer cells, 10.4 nM.
